Laboratory results reported in patent US10174038B2, “Compounds and methods for antiviral treatment” (Gilead Sciences, Inc., priority 2012, dated 2019).

tested on: RSV strain A2; test: RSV antiviral activity, in vitro cytoprotection assay in Hep2 cells; format: cell-based, Respiratory Syncytial Virus (RSV); details: human respiratory syncytial virus, HEp-2; 0.5 μM compound; RSV-induced cytopathic effect in Hep2 cells; % inhibition calculated from fitted 4-parameter dose response curve, normalized to 0% and 100%; read-out: Percent inhibition at 0.5 μM
Description: Antiviral activity against RSV was determined using an in vitro cytoprotection assay in Hep2 cells. […] The method used was similar to methods previously described in published literature (Chapman et al., Antimicrob Agents Chemother. 2007, 51(9):3346-53.)
Hep2 cells were obtained from ATCC (Manassas, Va.) and maintained in MEM media supplemented with 10% fetal bovine serum and penicillin/streptomycin. Cells were passaged twice a week and kept at subconfluent stage. Commercial stock of RSV strain A2 (Advanced Biotechnologies, Columbia, Md.) was titered before compound testing to determine the appropriate dilution of the virus stock that generated desirable cytopathic effect in Hep2 cells.
For antiviral tests, Hep2 cells were seeded into 96-well plates 24 hours before the assay at a density of 3,000 cells/well. On a separate 96 well plate, compounds to be tested were serially diluted in cell culture media. Eight concentrations in 3-fold serial dilution increments were prepared for each tested compound and 100 uL/well of each dilution was transferred in duplicate onto plates with seeded Hep2 cells. Subsequently, appropriate dilution of virus stock previously determined by titration was prepared in cell culture media and 100 uL/well was added to test plates containing cells and serially diluted compounds. Each plate included three wells of infected untreated cells and three wells of uninfected cells that served as 0% and 100% virus inhibition control, respectively. Following the infection with RSV, testing plates were incubated for 4 days in a tissue culture incubator. After the incubation, RSV-induced cytopathic effect was determined using a Cell TiterGlo reagent (Promega, Madison, Wis.) followed by a luminescence read-out. The percentage inhibition was calculated for each tested concentration relative to the 0% and 100% inhibition controls and the EC50 value for each compound was determined by non-linear regression as a concentration inhibiting the RSV-induced cytopathic effect by 50%. Ribavirin (purchased from Sigma, St. Louis, Mo.) was used as a positive control for antiviral activity.
Compounds were also tested for antiviral activity against RSV in Hep2 cells using a 384 well format. Compounds were diluted in DMSO using a 10-step serial dilution in 3-fold increments via automation in 4 adjacent replicates each. Eight compounds were tested per dilution plate. 0.4 uL of diluted compounds were then stamped via Biomek into 384-well plates (Nunc 142761 or 164730 w/lid 264616) containing 20 μL of media (Mediatech Inc. MEM supplemented with Glutamine, 10% FBS and Pen/Strep). DMSO and a suitable positive control compound, such as 80 μM GS-329467 or 10 μM 427346 was used for the 100% and 0% cell killing controls, respectively.
Hep2 cells (1.0×10^5 cells/ml) were prepared as above in batch to at least 40 mls excess of the number of sample plates (8 mls cell mix per plate) and infected with vendor supplied (ABI) RSV strain A2 to arrive at an MOI of 1:1000 (virus:cell #) or 1:3000 (vol virus:cell vol). Immediately after addition of virus, the RSV infected Hep2 cell suspension was added to each stamped 384-well plate at 20 μl per well using a uFlow dispenser, giving a final volume of 40 μL/well, each with 2000 infected cells. The plates were then incubated for 5 days at 37° C. and 5% CO2. Following incubation, the plates were equilibrated to room temperature in a biosafety cabinet hood for 1.5 hrs and 40 μL of Cell-Titer Glo viability reagent (Promega) was added to each well via uFlow. Following a 10-20 minute incubation, the plates were read using an EnVision or Victor Luminescence plate reader (Perkin-Elmer). The data was then uploaded and analyzed on the Bioinformatics portal under the RSV Cell Infectivity and 8-plate EC50-Hep2-384 or 8-plate EC50-Hep2-Envision protocols. […]

| SMILES | inhibition at 0.5 µM |
| --- | --- |
| CS(=O)(=O)Nc1ccc(Cl)cc1C(=O)N1CCCC[C@H]1c1cc2nc(C3CNC3)cc(N3CCOCC3)n2n1 [Compound 56] | 93% |
| CS(=O)(=O)Nc1ccc(Cl)cc1C(=O)N1CCCC[C@H]1c1cc2nc(C3CCCC3)cc(N3CCOCC3)n2n1 [Compound 57] | 93% |
| Cc1nc2cc([C@@H]3CCCCN3C(=O)c3cc(F)ccc3NS(C)(=O)=O)nn2c(C)c1C [Compound 58] | 89% |
| CN1CCN(c2cc(C3CC3)nc3cc([C@@H]4CCCCN4C(=O)c4cc(Cl)ccc4NS(C)(=O)=O)nn23)CC1 [Compound 59] | 92% |
| Cc1cc(N(C)CCO)nc2cc([C@@H]3CCCCN3C(=O)c3cc(Cl)ccc3NS(C)(=O)=O)nn12 [Compound 60] | 87% |
| Cc1cn2nc([C@@H]3CCCCN3C(=O)c3cc(Cl)ccc3NS(=O)(=O)N(C)C)cc2nc1N1CC[C@H](N)C1 [Compound 61] | 100% |
| Cc1cn2nc([C@@H]3CCCCN3C(=O)c3cc(Cl)ccc3NC(=O)c3ccccc3)cc2nc1N1CC[C@H](N)C1 [Compound 62] | 100% |
| Cc1cn2nc([C@@H]3CCCCN3C(=O)c3cc(Cl)ccc3NC(=O)OCC(F)(F)F)cc2nc1N1CC[C@H](N)C1 [Compound 63] | 100% |
| Cc1cn2nc([C@@H]3CCCCN3C(=O)c3cc(Cl)ccc3NC(=O)N(C)C)cc2nc1N1CC[C@H](N)C1 [Compound 64] | 100% |
| Cc1cn2nc([C@@H]3CCCCN3C(=O)c3cc(Cl)ccc3NC(=O)C(F)F)cc2nc1N1CC[C@H](N)C1 [Compound 65] | 100% |
| Cc1cc(C)nc(C(=O)N2CCCC[C@H]2c2cc3nc(N4CC[C@H](N)C4)c(C)cn3n2)c1 [Compound 66] | 100% |
| Cc1cn2nc([C@@H]3CCCCN3C(=O)c3cccc(C(F)(F)F)n3)cc2nc1N1CC[C@H](N)C1 [Compound 67] | 99% |
| CC(C)OC(=O)Nc1ccc(Cl)cc1C(=O)N1CCCC[C@H]1c1cc2nc(N3CCC3)cc(N3CCN(C(=O)OC(C)(C)C)CC3)n2n1 [Compound 68] | 100% |
| CC(C)OC(=O)Nc1ccc(Cl)cc1C(=O)N1CCCC[C@H]1c1cc2nc(N3CCC3)cc(N3CCNCC3)n2n1 [Compound 69] | 99% |
| CS(=O)(=O)Nc1ccc(Cl)cc1C(=O)N1CCCC[C@H]1c1cc2nc(N3CCC3)cc(N3CCCC(N)C3)n2n1 (stereo partly shown) [Compound 70] | 100% |
| CS(=O)(=O)Nc1ccc(Cl)cc1C(=O)N1CCCC[C@H]1c1cc2nc(N3CCC3)cc(N3CC[C@@H](N)C3)n2n1 [Compound 71] | 100% |
| CN(C)[C@@H]1CCN(c2cc(N3CCC3)nc3cc([C@@H]4CCCCN4C(=O)c4cc(Cl)ccc4NS(C)(=O)=O)nn23)C1 [Compound 72] | 100% |
| Cc1ccc(NS(C)(=O)=O)c(C(=O)N2CCCC[C@H]2c2cc3nc(C4CC4)c(C)cn3n2)c1 [Compound 73] | 100% |
| Cc1cc(C2CC2)nc2cc([C@@H]3CCCCN3C(=O)c3cc(F)cc(Cl)c3NS(C)(=O)=O)nn12 [Compound 74] | 97% |
| Cc1cc(C2CC2)nc2cc([C@@H]3CCCCN3C(=O)c3cc(F)ccc3NS(C)(=O)=O)nn12 [Compound 75] | 100% |
| Cc1ccc(C(=O)N2CCCC[C@H]2c2cc3nc(C4CC4)cc(C)n3n2)c(NS(C)(=O)=O)c1 [Compound 76] | 99% |
| Cc1cc(C2CC2)nc2cc([C@@H]3CCCCN3C(=O)c3cc(Cl)ccc3N)nn12 [Compound 77] | 94% |
| Cc1nc2cc([C@@H]3CCCCN3C(=O)c3cc(Cl)ccc3NS(C)(=O)=O)nn2c(N2CCC2)c1C [Compound 78] | 99% |
| Cc1ccc(NS(C)(=O)=O)c(C(=O)N2CCCC[C@H]2c2cc3nc(C)c(C)c(N4CCC4)n3n2)c1 [Compound 79] | 100% |
| CCc1ccc(NS(C)(=O)=O)c(C(=O)N2CCCC[C@H]2c2cc3nc(C4CC4)cc(N4CCOCC4)n3n2)c1 [Compound 80] | 99% |

| SMILES | inhibition at 0.5 µM |
| --- | --- |
| Cc1ccc(NS(C)(=O)=O)c(C(=O)N2CCCC[C@H]2c2cc3nc(C)c(C)cn3n2)c1 [Compound 81] | 100% |
| CC(=O)Nc1ccc(C)c(Br)c1C(=O)N1CCCC[C@H]1c1cc2nc(C)c(C)c(C)n2n1 [Compound 83] | 100% |
| CN[C@@H]1CCN(c2cc(C)n3nc([C@@H]4CCCCN4C(=O)c4cc(Cl)ccc4NS(C)(=O)=O)cc3n2)C1 [Compound 84] | 95% |
| CS(=O)(=O)Nc1ccc(Cl)cc1C(=O)N1CCCC[C@H]1c1cc2nc(C3CC3)ccn2n1 [Compound 85] | 86% |
| CC(=O)Nc1ccc(C)cc1C(=O)N1CCCC[C@H]1c1cc2nc(N3CCC[C@H](N)C3)c(C)cn2n1 [Compound 86] | 84% |
| CC(=O)Nc1ccc(C)cc1C(=O)N1CCCC[C@H]1c1cc2nc(N3CC(NC(=O)OC(C)(C)C)C3)c(C)cn2n1 [Compound 87] | 89% |
| Cc1cn2nc([C@@H]3CCCCN3C(=O)c3cc(Cl)ccc3NS(C)(=O)=O)cc2nc1N1CCC[C@H](N)C1 [Compound 88] | 89% |
| CS(=O)(=O)Nc1ccc(Cl)cc1C(=O)N1CCCC[C@H]1c1cc2nc(N3CC(CO)C3)cc(N3CCOCC3)n2n1 [Compound 89] | 90% |
| CS(=O)(=O)Nc1ccc(Cl)cc1C(=O)N1CCCC[C@H]1c1cc2nc(N3CCCC3)cc(N3CCOCC3)n2n1 [Compound 90] | 100% |
| CNc1cc(N2CCOCC2)n2nc([C@@H]3CCCCN3C(=O)c3cc(Cl)ccc3NS(C)(=O)=O)cc2n1 [Compound 91] | 91% |
| CN(C)c1cc(N2CCOCC2)n2nc([C@@H]3CCCCN3C(=O)c3cc(Cl)ccc3NS(C)(=O)=O)cc2n1 [Compound 92] | 98% |
| CS(=O)(=O)Nc1ccc(Cl)cc1C(=O)N1CCCC[C@H]1c1cc2nc(N3CC[C@@H](F)C3)cc(N3CCOCC3)n2n1 [Compound 93] | 56% |
| CNC1CCN(c2cc(N3CCOCC3)n3nc([C@@H]4CCCCN4C(=O)c4cc(Cl)ccc4NS(C)(=O)=O)cc3n2)C1 (stereo partly shown) [Compound 94] | 89% |
| CS(=O)(=O)Nc1ccc(Cl)cc1C(=O)N1CCCC[C@H]1c1cc2nc(N3CC[C@@H](N)C3)cc(N3CCOCC3)n2n1 [Compound 95] | 99% |
| CS(=O)(=O)Nc1ccc(Cl)cc1C(=O)N1CCCC[C@H]1c1cc2nc(N3CC[C@H](O)C3)cc(N3CCOCC3)n2n1 [Compound 96] | 90% |
| Cc1cn2nc([C@@H]3CCCCN3C(=O)c3cc(Cl)ccc3NS(C)(=O)=O)cc2nc1N1CC(C#N)C1 [Compound 97] | 97% |
| Cc1cn2nc([C@@H]3CCCCN3C(=O)c3cc(Cl)ccc3NS(C)(=O)=O)cc2nc1N1CC(F)(F)C1 [Compound 98] | 100% |
| COC(=O)C1CCN1c1nc2cc([C@@H]3CCCCN3C(=O)c3cc(Cl)ccc3NS(C)(=O)=O)nn2cc1C (stereo partly shown) [Compound 99] | 100% |
| Cc1cn2nc([C@@H]3CCCCN3C(=O)C(NS(C)(=O)=O)c3ccccc3F)cc2nc1N1CC[C@H](N)C1 (stereo partly shown) [Compound 100] | 100% |
| Cc1cn2nc([C@@H]3CCCCN3C(=O)C(NS(C)(=O)=O)c3ccccc3)cc2nc1N1CC[C@H](N)C1 (stereo partly shown) [Compound 101] | 100% |
| COC(=O)N[C@H](C(=O)N1CCCC[C@H]1c1cc2nc(N3CC[C@H](N)C3)c(C)cn2n1)C1CC1 [Compound 102] | 99% |
| Cc1ccc(NS(C)(=O)=O)c(C(=O)N2CCCC[C@H]2c2cc3nc(C)nc(C)n3n2)c1 [Compound 103] | 27% |
| Cc1cc(C)n2cc([C@@H]3CCCCN3C(=O)c3cc(Cl)ccc3NS(C)(=O)=O)nc2c1 [Compound 104] | 3% |
| Cc1ccc(NS(C)(=O)=O)c(C(=O)N2CCCC[C@H]2c2cc3cc(C)cc(C)n3n2)c1 [Compound 105] | 96% |
